Measurements from paper PMC12190436, “5-Ene-2-arylaminothiazol-4(5H)-ones Induce Apoptosis in Breast Cancer Cells” (Cells, 2025).
Counter-ions that a name gives are not always drawn.

What was measured:
Assay type in all cases: cell-based, human
MCF-7 cells [1] = assay: Annexin V-FITC/propidium iodide flow cytometry; details: 24 h; for viability at 5 µM: MCF7, 5 µM
Protocol: The MCF-7 cells were seeded on 6-well plates (1 × 10^5 cells per well) and incubated for 24 h. Afterwards, the cells were washed, and tested compounds (Les-6416, Les-6418, Les-6381, Les-6423, and Les-6424) were added in a concentration of 5 µM. The reference drug doxorubicin hydrochloride was applied in a concentration of 0.5 µM. The cells were incubated with the compounds for 24 h. Afterwards, the cells were washed several times with cold PBS and the cell suspensions were prepared in the binding buffer from the kit at a concentration of 1 × 10^6 cells/mL. A total of 100 µL of suspension was collected from each sample and transferred to the tubes. After that, 5 µL of Annexin V-FITC and 5 µL of propidium iodide were added. After 15 min of incubation at room temperature in a dark environment, the content of the tubes was filled with binding buffer up to 500 µL and assessed by BD FACSCanto II flow cytometer (Becton Dickinson Biosciences, San Jose, CA, USA). A total of 1 × 10^4 events were measured for each sample. The results were investigated by applying FACSDiva software Version 6.1.3. (BD Biosciences Systems, San Jose, CA, USA).
To assess the effects of novel compounds on apoptosis, we utilized flow cytometry analysis with Annexin V-FITC and Propidium Iodide double staining. In this way, we could distinguish between different cell populations based on their state: unstained or alive cells, cells stained with propidium iodide or necrotic cells, cells only stained with FITC-labeled annexin V or early apoptotic cells, and cells stained with both annexin V and propidium iodide or late apoptotic cells.

caspase 7 = assay: FLICA caspase-3/7 activity, flow cytometry; details: 5 µM, 24 h, MCF-7
Protocol: To determine the effects of the novel compounds on the caspases-3/7, caspase-8, caspase-9, and caspase-10 activity, the FLICA Caspase-3/7 Assay Kit, FLICA Caspase-8 Assay Kit, FLICA Caspase-9 Assay Kit, and FLICA Caspase-10 Assay Kit were applied (ImmunoChemistry Technologies, Bloomington, MN, USA). MCF-7 cells were seeded on 6-well plates (1 × 10^5 cells per well) and incubated for 24 h. Afterwards, they were treated for 24 h with tested compounds (Les-6416, Les-6418, Les-6381, Les-6423, and Les-6424) in a concentration of 5 µM and the reference drug doxorubicin hydrochloride in a concentration of 0.5 µM. Next, cells were amassed and washed two times with cold PBS, followed by resuspension in an Apoptosis Wash Buffer to a final concentration of 5 × 10^5 cells/mL. Afterwards, 290 µL of the prepared cell suspensions were transferred into tubes, followed by the addition of 10 µL of FLICA solution, prepared immediately before use, to each sample and incubated for an hour at 37 °C. Next, cells were washed two times with 2 mL of Apoptosis Wash Buffer, provided in the kit, centrifuged, and resuspended in 300 µL of the buffer. Prepared samples were assessed by a BD FACSCanto II flow cytometer (Becton Dickinson Biosciences, San Jose, CA, USA). For each sample, 1 × 10^4 events were analyzed. The obtained results were investigated by applying FACSDiva software Version 6.1.3 (BD Biosciences Systems, San Jose, CA, USA).
To further investigate the effects of the newly synthesized compounds on the process of apoptosis we decided to measure their impact on various caspases as evidence of intrinsic (caspase 9) or extrinsic (caspase 8, 10) pathways of programmed cell death by applying flow cytometry analysis after 24 h treatment of MCF-7 breast cancer cells with novel 4-thiazolidinone derivatives and reference drug doxorubicin hydrochloride. […] With 41.28 ± 5.45%, 43.23 ± 2.85%, and 41.90 ± 6.89% of cells with activated caspase 8, 10, and 9, respectively, Les-6416 continued the trend of displaying the most significant effect on the three tested caspases. […]

MCF-7 cells [2] = assay: JC-1 mitochondrial membrane potential, flow cytometry; details: 5 µM, 24 h, MCF-7, JC-1
Protocol: Lipophilic fluorochrome JC-1 (5,5′,6,6′-tetrachloro-1,1′,3,3′-tetraethylbenzimidazolcarbocyanine iodide) (BD Biosciences, San Diego, CA, USA) was applied to determine the novel structures’ effects on the MMP [35]. MCF-7 cells were seeded on 6-well plates at 5 × 10^6 cells per well, followed by incubation for 24 h. Afterwards, the cells were treated for 24 h with new 4-thiazolidinone derivatives (Les-6416, Les-6418, Les-6381, Les-6423, and Les-6424) in a concentration of 5 µM and the reference drug doxorubicin hydrochloride in a concentration of 0.5 µM. Then, cells were collected at a concentration of 1 × 10^6 cells/mL and washed two times with PBS. Next, 0.5 mL of the pre-prepared JC-1 working solution was added to each sample in accordance with the instructions of the manufacturer, followed by incubation at 37 °C for 15 min in a CO2 incubator. After that, an assay buffer was added to each sample to wash the cells several times. Afterwards, 0.5 mL from each sample was transferred to the tubes for immediate assessment using a BD FACSCanto II flow cytometer (Becton Dickinson Biosciences, San Jose, CA, USA). For each sample, 1 × 10^4 events were analyzed. The obtained results were investigated by applying FACSDiva software Version 6.1.3 (BD Biosciences Systems, San Jose, CA, USA).
A critical determinant of the induction of the intrinsic pathway of apoptosis is the decrease in mitochondrial membrane potential (ΔΨm). To investigate the effects of the novel 4-thiazolidinones on mitochondrial membrane potential, flow cytometry analysis of JC-1 dye was applied. JC-1 is a carbocyanine lipophilic cationic fluorochrome whose fluorescence depends on the MMP. Red fluorescence is emitted in viable cells with healthy mitochondria; however, apoptotic or necrotic cells with damaged mitochondria emit green fluorescence.

[3] = Homo sapiens, read-out: Viable cells, cell population

For `COc1ccc(C=C2SC(Nc3cc(OC)c(OC)c(OC)c3)=NC2=O)cc1` [Les-6381, 5-(4-Methoxybenzylidene)-2-((3,4,5-trimethoxyphenyl)amino)thiazol-4(5H)-one], the viability at 5 µM (MCF-7 cells [1]; [3]) was 49.6%, the “cells with active caspase 7” value (caspase 7) was 15.05 ± 1.73% and the “Reduced ΔΨm, cell population” value (MCF-7 cells [2]) was 27.95 ± 1.43%.
With `COc1cc(NC2=NC(=O)C(=Cc3cccs3)S2)cc(OC)c1OC` [Les-6423, 5-(Thiophen-2-ylmethylene)-2-((3,4,5-trimethoxyphenyl)amino)thiazol-4(5H)-one] the “proapoptotic effect in comparison to the control” value (MCF-7 cells [1]; 5 µM) was “did not have any statistically significant results” and the viability at 5 µM (MCF-7 cells [1]; [3]) was 90%.
In the case of `COc1cc(NC2=NC(=O)C(=Cc3ccc4cc[nH]c4c3)S2)cc(OC)c1OC` [Les-6416, 5-((1H-Indol-6-yl)methylene)-2-((3,4,5-trimethoxyphenyl)amino)thiazol-4(5H)-one], the “Early apoptotic cells, cell population” value (MCF-7 cells [1]; 5 µM) is reported as 8.23 ± 2.56%, the “Late apoptotic cells, cell population” value (MCF-7 cells [1]; 5 µM) is reported as 45.63 ± 10.29% and the “Necrotic cells, cell population” value (MCF-7 cells [1]; 5 µM) is reported as 0.07 ± 0.06%. For the same molecule, the viability at 5 µM (MCF-7 cells [1]; [3]) was 39.8%, the “cells with active caspase 7” value (caspase 7) was 47.90 ± 0.57% and the “Reduced ΔΨm, cell population” value (MCF-7 cells [2]) was 33.80 ± 0.85%.
For `COc1cccc2c1C(=O)c1c(O)c3c(c(O)c1C2=O)C[C@@](O)(C(=O)CO)C[C@@H]3O[C@H]1C[C@H](N)[C@H](O)[C@H](C)O1` [DOX, Doxorubicin hydrochloride, reference compound], the “Necrotic cells, cell population” value (MCF-7 cells [1]; 0.5 µM) was 27.23 ± 3.76% and the viability at 0.5 µM (MCF-7 cells [1]; Homo sapiens, MCF7, 0.5 µM, read-out: Viable cells, cell population) was 59.6%.
`COc1cc(NC2=NC(=O)C(=Cc3c[nH]c4ccccc34)S2)cc(OC)c1OC` [Les-6418, 5-((1H-Indol-3-yl)methylene)-2-((3,4,5-trimethoxyphenyl)amino)thiazol-4(5H)-one] was tested, and the “Early apoptotic cells, cell population” value (MCF-7 cells [1]; 5 µM) was 7.55 ± 1.17%, the “Late apoptotic cells, cell population” value (MCF-7 cells [1]; 5 µM) was 44.68 ± 8.18% and the “Necrotic cells, cell population” value (MCF-7 cells [1]; 5 µM) was 0.13 ± 0.05%. The viability at 5 µM (MCF-7 cells [1]; [3]) was 47.7%, the “cells with active caspase 7” value (caspase 7) was 19.85 ± 0.07% and the “Reduced ΔΨm, cell population” value (MCF-7 cells [2]) was 22.35 ± 3.06%.
